This is an account of results in patent US6197774A, “Pyrimidine derivative” (Otsuka Pharmaceutical Co., Ltd., priority 1997, dated 2001).

Molecules are shown by their SMILES.

Experiment [1] relates to formation of IL-8 in cell strain A 549. As to the kind of experiment: Activity for inhibiting the formation of IL-8 in vitro (A 549 cells, ELISA). The experiment is classed as cell-based. Particulars: Homo sapiens, A549, control 100.0, 24 hours, read-out: Ratio of formed amount of IL-8. As for the experimental part: [Evaluation test of activity for inhibiting the formation of IL-8 in vitro]
Pyrimidine derivative obtained in Example 1 was used as test comppound.
Cell strain A 549 (ATCC) derived from human alveolar epithelium cells was placed on each one of the wells on a microplate having 24-wells so as to put the cells in an amount of 3×10^5 cells/U (well). The cells were incubated for 24 hours in F-12 Nutrient Mixture culture medium (mfd. by GIBCO) to which 10% of equine serum, 100 U/ml of penicillin (mfd. by Dainippon Pharmaceutical Co., Ltd.) and 100 μg/ml of streptomycin (mfd. by Dainippon Pharmaceutical Co., Ltd.) were added.
Next, the equine serum was removed from the culture medium, and the reference culture medium as control was prepared by adding inducers of TNF-α (mfd. by genzyme), IL-1β (mfd. by genzyme) and IFN-γ (mfd. by genzyme) to the culture medium, so as to induce the formation of IL-8.
On the other hand, the test culture medium, containing the test compound of Example 1 was prepared similarly as in the reference culture medium, except adding the test compound (1×10^-5, 1×10^-6 and 1×10^-7 M) dissolved in dimethyl sulfoxide (DMSO) at the same time of inducers-addition.
The concentration of IL-8 formed in the supernatant of each one of the culture media after 24-hour incubation was measured by IL-8 ELISA Kit Human (mfd. by genzyme). Further, MTT assay was conducted by the similar method as described in Text Example 2 to determine the index of toxicity for cells.
Background: An ELISA detects its analyte on a solid surface through an enzyme-linked reagent.

For experiment [2], the target named is T1, 5-lipoxygenase (Rattus norvegicus, UniProt P12527).
T1 construct: Thus obtained supernatant was collected and concentrated so as to obtain crude enzyme containing 5-lipoxygenase; host or cells: rat basophilic leukemia-1 cells
T1 sequence (P12527 1-673): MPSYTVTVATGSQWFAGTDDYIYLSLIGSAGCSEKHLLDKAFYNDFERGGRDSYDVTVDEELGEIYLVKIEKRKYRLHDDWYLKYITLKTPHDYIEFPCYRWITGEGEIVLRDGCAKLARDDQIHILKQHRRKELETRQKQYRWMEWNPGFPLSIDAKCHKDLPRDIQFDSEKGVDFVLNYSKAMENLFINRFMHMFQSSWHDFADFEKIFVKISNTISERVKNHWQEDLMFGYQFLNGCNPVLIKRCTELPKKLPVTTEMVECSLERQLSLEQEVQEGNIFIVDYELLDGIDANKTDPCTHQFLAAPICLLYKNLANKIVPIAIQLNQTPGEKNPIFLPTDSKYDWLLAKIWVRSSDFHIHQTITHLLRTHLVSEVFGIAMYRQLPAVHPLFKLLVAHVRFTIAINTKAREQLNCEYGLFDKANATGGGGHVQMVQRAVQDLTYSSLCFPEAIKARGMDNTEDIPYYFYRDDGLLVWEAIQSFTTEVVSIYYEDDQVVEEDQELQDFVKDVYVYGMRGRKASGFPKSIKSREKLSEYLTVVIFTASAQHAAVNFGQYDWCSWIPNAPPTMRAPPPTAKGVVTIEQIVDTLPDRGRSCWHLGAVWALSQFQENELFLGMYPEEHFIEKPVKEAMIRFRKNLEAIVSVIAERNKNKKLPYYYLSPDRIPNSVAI
In words: Activity for inhibiting 5-lipoxygenase in vitro (crude enzyme from rat basophilic leukemia-1 cells, 5-HETE RIA). The experiment is classed as biochemical. The note with it: 8 minutes at 25° C. As for the experimental part:
[Evaluation test of activity for inhibiting 5-lipoxygenase in vitro]
Pyrimidine derivative obtained in Example 1 was used as test compound.
Test was referred to the methods as described in Proc. Natl. Acad. Sci. U.S.A., Vol. 81, pp. 689-693 (1984) and J. Biol. Chem., Vol. 260, pp. 11554--11559 (1985).
(1) Preparation of Crude Enzyme Containing 5-lipoxygenase
RBI-1 cells (rat basophilic leukemia-1, ATCC, 1×10^8 cells) in 5 ml of buffer solution (50 mM Tris/1 mM EDTA, pH 7.4) were lysed with nitrogen cavitation bomb (mfd. by PARR Instrument Company) under 750 psi for 20 min at 4° C. The solution were centrifuged with twice volume of 50 mM Tris/1 mM EDTA (pH 7.4) at 5000 rpm for 10 minutes at 4° C. The supernatant of the solution was taken and further centrifuged at 37,500 rpm for 90 minutes at 4° C. Thus obtained supernatant was collected and concentrated so as to obtain crude enzyme containing 5-lipoxygenase. Its protein concentration was determined with Protein assey kit (mfd. by Pierce).
(2) Evaluation of Activity for Inhibiting 5-lipoxygenase (RIA assay)
12.5 μl of Crude enzyme, 61.5 μl of 50 mM Tris-HCl (mfd. by Sigma Chemical Co.), 12.5 μl of 0.5 mM ATP (mfd. by Sigma Chemical Co.), and 12.5 μl of cofacter solution (50 mM Tris-HCl (pH 7.2, at 25° C.) containing 10 mM glutahion, 14 mM of indomethacin and 500 mM of CaCl2.2H2 O) were preincubated for […] at 25° C. for reference solution as control. On the other hand, the test solution containing the test compound of Example 1 was prepared similarly as in the reference solution, except adding 1 μl of the test compound (1×10^-4, 1×10^-5, and 1×10^-6 M).
25 μl of 0.07 mM Arachidonic acid (mfd. by Sigma Chemical Co.) was added each of the reference solution and test solutin to intiate the reaction, and incubated it for 8 minutes at 25° C. The reaction was terminated by adding 40 μl of citric acid (mfd. by Sigma Chemical Co.). […]
RIA assay was conducted by the 5-HETE [^3 H] […] RIA assay to determine the amount of 5-lipoxygenase by counting radioactivity on the liquid scintillation counter (mfd. by Beckman Co.). […]

As a reminder, the inhibition is the drop in the measured response relative to a control, in per cent.

As to `COCc1cc(=O)n2ncc(-c3ccc(Sc4ccccc4)cc3)c2[nH]1` [Example 1, 4,7-dihydro-5-methoxymethyl-7-oxo-3-(4-phenylthiophenyl)pyrazolo[1,5-a]pyrimidine], the activity at 10 µM in experiment [1] (1 × 10^-5 M) worked out at 13.4%. Further, the activity at 1 µM in experiment [1] (1 × 10^-6 M) was 52.6%. Also, the activity at 0.1 µM in experiment [1] (1 × 10^-7 M) is 64.5%. The same compound registered an inhibition at 100 µM in experiment [2] (1 × 10^-4 M) of 24.3%. For the same compound, the inhibition at 10 µM in experiment [2] (1 × 10^-5 M) turned out to be 38.8%. Moreover, the inhibition at 1 µM in experiment [2] (1 × 10^-6 M) was 68%.
